Reference: PubChem BioAssay (NCI)
Several values for one entry are separate records, joined by “and”; a condition that tells them apart may be missing. Identical values can stand only once.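 Protocol summary: plate cells (96-well), add compound at 5 concentrations, incubate 48 h, interpolate endpoints linearly. GI50 = concentration required for 50% inhibition of growth. TGI: concentration producing complete growth inhibition.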

Key:
Assay in all cases: NCI-60 cell line screen, 48 h
[1] = system: SNB-78 CNS
[2] = system: DLD-1 colon
[3] = system: SF-539 CNS
[4] = system: CAKI-1 renal
[5] = system: DMS 114 small cell lung
[6] = system: T-47D breast
[7] = system: HS 578T breast
[8] = system: BT-549 breast
[9] = system: MDA-MB-231 breast
[10] = system: NCI/ADR-RES ovarian

Nn1c(N=Nc2c(O)[nH]c3c(Cl)cc(Cl)cc23)n[nH]c1=S
TGI [1]: > 100 µM
TGI [2]: > 100 µM
TGI [3]: > 100 µM
TGI [4]: > 100 µM
TGI [5]: > 100 µM

Cc1cccc(C(C)(C)C)c1NC(=O)CC1Sc2ccccc2NC1=O (centres undefined)
TGI [2]: > 100 µM
TGI [3]: > 100 µM
TGI [4]: > 100 µM
TGI [5]: 83 µM

O=[N+]([O-])c1cccc(C2=NOC3C4CCC(C4)C23)c1 (centres undefined)
TGI [2]: > 100 µM
TGI [3]: > 100 µM
TGI [5]: > 100 µM

COc1ccc2nc(NC(=O)C(=O)C(C#N)c3ccc(Cl)c(Cl)c3)sc2c1 (centres undefined)
TGI [1]: > 100 µM
TGI [2]: > 100 µM
TGI [3]: > 100 µM
TGI [4]: > 100 µM
TGI [5]: > 100 µM

Cc1cccc2nc3cccc(C(=O)NCCN(C)C)c3nc12
TGI [1]: 12 µM
TGI [2]: 21.8 µM
TGI [3]: 1.21 µM
TGI [4]: 15.8 µM
TGI [5]: 3.13 µM

COC(=O)C1=C(c2ccc3c(c2)OCO3)OC(c2cc(OC)c(OC)c(OC)c2)C1 (centres undefined)
TGI [1]: > 100 µM
TGI [2]: > 100 µM
TGI [3]: 87.8 µM
TGI [4]: > 100 µM
TGI [5]: 9.33 µM

CCOC(=O)C1=C(Nc2ccc(Cl)c(Cl)c2)OC/C1=N\NS(=O)(=O)c1ccc(C)cc1
TGI [1]: > 100 µM
TGI [2]: > 100 µM
TGI [3]: > 100 µM
TGI [4]: > 100 µM
TGI [5]: > 100 µM

Cc1cc(N(CCC#N)CCC#N)ccc1C=Nc1ccc(C(=O)NN2C(=O)/C(=C/c3ccc(N(CCC#N)CCC#N)cc3)N=C2c2cc([N+](=O)[O-])ccc2Cl)cc1
TGI [1]: > 100 µM
TGI [2]: > 100 µM
TGI [3]: > 100 µM
TGI [4]: > 100 µM
TGI [5]: > 100 µM

O=C(CC1C(=O)Nc2ccccc2S1=O)Nc1ccc(Cl)cc1 (centres undefined)
TGI [1]: > 100 µM
TGI [2]: > 100 µM
TGI [3]: 51.1 µM
TGI [4]: > 100 µM

C/C=C(\C)C(=O)N[C@H]1C(O)C[C@]2(C)C3CC[C@@]4(C)C(CC[C@@H]4C(C)N(C)C)C3CCC2C1O (some centres undefined)
GI50 [6]: 2.91 µM
TGI [6]: 17.7 µM
GI50 [7]: 6.56 µM
TGI [7]: 29.6 µM
GI50 [8]: 16.9 µM
TGI [8]: 51.9 µM
GI50 [3]: 1.61 µM
TGI [3]: 3.46 µM
GI50 [4]: 9.42 µM
TGI [4]: 38.8 µM
GI50 [9]: 6.06 µM
TGI [9]: 18 µM
GI50 [10]: 18.4 µM
TGI [10]: > 75.5 µM

CC1(C)OC(=O)C=C([O-])O1.CC1(C)OC(=O)C=C([O-])O1.CC[O-].CC[O-].[Ti+4]
GI50 [1]: > 100 µM
TGI [1]: > 100 µM
GI50 [2]: > 100 µM
TGI [2]: > 100 µM
GI50 [3]: > 100 µM
TGI [3]: > 100 µM
GI50 [4]: > 100 µM
TGI [4]: > 100 µM
GI50 [5]: > 100 µM
TGI [5]: > 100 µM

Cc1ccccc1-n1c(C)nc(-c2ccccc2)cc1=O
TGI [1]: > 100 µM
TGI [2]: > 100 µM
TGI [3]: > 100 µM
TGI [4]: > 100 µM
TGI [5]: > 100 µM

COc1ccc(C2=CC(c3ccc(OC)c(OC)c3)c3c(c4ccccc4oc3=O)O2)cc1OC (centres undefined)
GI50 [6]: 3.66 µM
TGI [6]: > 100 µM
GI50 [7]: 0.957 µM
TGI [7]: > 26.9 µM
GI50 [8]: 92.6 µM
TGI [8]: > 100 µM
GI50 [3]: 1.02 µM
TGI [3]: 4.43 µM
GI50 [4]: 1.67 µM
TGI [4]: > 100 µM
GI50 [9]: 3.46 µM
TGI [9]: > 51.4 µM
GI50 [10]: 0.545 µM

O=C1C=CC(CC(=O)c2ccc3ccccc3c2)O1 (centres undefined)
TGI [1]: > 100 µM
TGI [2]: 80.6 µM
TGI [3]: 33.2 µM
TGI [4]: > 100 µM

Cc1ccc(NC(=O)C(=O)Cc2cc[n+]([O-])cc2)cc1
TGI [1]: > 100 µM
TGI [2]: > 100 µM
TGI [3]: > 100 µM
TGI [4]: > 100 µM
TGI [5]: > 100 µM

CC(=O)Oc1ccc(C(c2ccc(OC(C)=O)cc2)c2ccccn2)cc1
GI50 [6]: 0.204 µM
TGI [6]: 0.532 µM and 1.19 µM
TGI [7]: 0.677 µM and 0.638 µM
GI50 [8]: 0.313 µM
TGI [2]: > 100 µM
TGI [3]: > 100 µM
GI50 [4]: 46.8 µM
TGI [4]: > 100 µM
TGI [5]: > 68.4 µM
GI50 [9]: 48 µM
TGI [9]: > 100 µM
GI50 [10]: 0.908 µM
TGI [10]: > 100 µM

CC(C)COC(=O)c1ccc2[nH]c(O)c(C=Nc3ccc(S(N)(=O)=O)cc3)c2c1
GI50 [6]: 2.51 µM
TGI [6]: 12.6 µM
GI50 [7]: 1.45 µM
TGI [7]: 6.07 µM
GI50 [8]: 1.65 µM
TGI [8]: 4 µM
GI50 [3]: 0.975 µM
TGI [3]: 3.67 µM
GI50 [4]: 2.86 µM
TGI [4]: 16.7 µM
GI50 [9]: 0.915 µM
TGI [9]: 6.76 µM
GI50 [10]: 5.36 µM
TGI [10]: 21.2 µM

CC(Br)C(=O)Nc1ccc(C(=O)O)c(O)c1 (centres undefined)
TGI [6]: > 100 µM
TGI [7]: > 100 µM
TGI [8]: > 100 µM
TGI [3]: > 100 µM
TGI [4]: > 100 µM
TGI [9]: > 100 µM
TGI [10]: > 100 µM

COC1=C2CC(C)CC(OC)C(O)C(C)/C=C(\C)C(OC(N)=O)C(OC)/C=C\C=C(/C)C(=O)NC(=C(/C=N/N3CCCCC3)C1=O)C2=O (centres undefined)
TGI [1]: 48.3 µM
TGI [2]: 23.4 µM
TGI [3]: 20.8 µM
TGI [4]: 37 µM

N#CC1=C(Cl)NC(Cl)=C(C#N)C1c1c(Cl)cccc1Cl
TGI [1]: > 100 µM
TGI [2]: 46.9 µM
TGI [3]: > 100 µM
TGI [4]: > 100 µM
TGI [5]: 28.3 µM

O=C1NCCS(=O)(=O)/C1=C\C=C\c1cccc(C(F)(F)F)c1
GI50 [6]: 3.51 µM
TGI [6]: 17.3 µM
GI50 [7]: 6.81 µM
TGI [7]: 30.7 µM
GI50 [8]: 2.4 µM
TGI [8]: 8.54 µM
GI50 [3]: 2.83 µM
TGI [3]: 10.1 µM
GI50 [4]: 2.22 µM
TGI [4]: 10.2 µM
GI50 [9]: 4.21 µM
TGI [9]: 15.9 µM
GI50 [10]: 2.81 µM
TGI [10]: 14.2 µM

CC12Oc3ccc4ccccc4c3CC1Cc1c(ccc3ccccc13)O2 (centres undefined)
TGI [2]: > 100 µM
TGI [3]: > 100 µM
TGI [4]: > 100 µM
TGI [5]: > 100 µM

CCc1nc(N)nc(N)c1-c1ccc(Cl)c(N=CN(C)C)c1
TGI [6]: > 100 µM
TGI [7]: > 100 µM
TGI [8]: > 100 µM
TGI [3]: > 100 µM
TGI [4]: > 100 µM
TGI [9]: > 100 µM
TGI [10]: > 100 µM

CC(C)c1cc(OCC(O)CO)cc(C(C)C)c1 (centres undefined)
TGI [1]: > 100 µM
TGI [2]: > 100 µM
TGI [3]: > 100 µM
TGI [4]: > 100 µM
TGI [5]: > 100 µM

Cn1c(=O)c(Oc2ccc(F)cc2F)cc2cnc(NCCS(C)(=O)=O)nc21
GI50 [6]: > 25 µM
TGI [6]: > 25 µM
GI50 [7]: > 25 µM
TGI [7]: > 25 µM
GI50 [8]: > 25 µM
TGI [8]: > 25 µM
GI50 [3]: > 25 µM
TGI [3]: > 25 µM
GI50 [4]: > 25 µM
TGI [4]: > 25 µM
GI50 [9]: > 25 µM
TGI [9]: > 25 µM
GI50 [10]: > 25 µM
TGI [10]: > 25 µM

COC(=O)C1=CC2OC1(C)CCC2=O (centres undefined)
TGI [2]: > 100 µM
TGI [3]: > 100 µM
TGI [4]: > 100 µM

O=C(Nc1ccc(Cl)c(Cl)c1)OCCN1c2ccccc2Sc2ccccc21
TGI [6]: > 10 µM
TGI [7]: > 10 µM
TGI [8]: > 10 µM
TGI [3]: > 10 µM
TGI [4]: > 10 µM
TGI [9]: > 10 µM
TGI [10]: > 10 µM
